The source of these data is patent US7795427B2, “Methods for inhibiting osteoclast differentiation, formation, or function and for increasing bone mass” (New York University, priority 2006, dated 2010).

Entries after “also recorded” stand apart in the source; their conditions may differ.

In assay [1] the test system is osteoclast precursors. The assay can be described thus: Osteoclast formation with DPCPX added at different days of culture. The class given is cell-based, mouse. The method, then: FIG. 5. DPCPX Inhibits Osteoclastogenesis by Acting on Osteoclast Precursors. […] After culture for 7 days with DPCPX, cells were stained for TRAP. Results are expressed as the mean±SEM of three cultures per variable. […] TRAP is preferentially expressed at high levels in osteoclasts and is considered, especially in the mouse, to be an osteoclast marker. After incubation, cells on wells were washed in PBS, fixed in 4% paraformaldehyde for 10 min, and stained for acid phosphatase in the presence of 0.3 M sodium tartrate (Sigma-Aldrich). The substrate used was napthol AS-BI phosphate (Sigma-Aldrich). Only those cells that were strongly TRAP-positive (dark red) and have more than 3 nuclei were counted by light microscopy. To determine at which stage DPCPX inhibits osteoclast differentiation, osteoclast precursors were incubated with M-CSF, RANKL and DPCPX was added on day 0, 3 and 6. After culture for a total of 7 days with DPCPX, TRAP-positive multinucleated cells were enumerated.

Assay [2] concerns c-Fos mRNA. The assay can be described thus: RT-PCR of c-Fos mRNA in osteoclast precursors. The class given is cell-based, mouse. Conditions: DPCPX 1 μM, M-CSF and RANKL, 7 days. An excerpt: (§1) FIG. 7. […] I.D. NO: 21); c-Fos antisense [NT]. I.D. NO: 22); PU.1.- sense [NT]. I.D. NO: 23); PU.1 antisense [NT]. […] I.D. NO: 10).
For assay [3], the system named is bone marrow cells. The assay can be described thus: RANKL-induced osteoclast formation from bone marrow cells (TRAP-positive MNC count). Type of assay: cell-based, mouse. Conditions: for osteoclast formation: M-CSF and RANKL. An excerpt:
FIG. 1. Effect of DPCPX on osteoclast formation by bone marrow cells. […] After 7 days cells were fixed and stained for TRAP, and the number of TRAP-positive MNCs per well was scored. (Similar results were obtained in three independent experiments). Bone marrow cells were isolated from 5- to 8-wk-old C57BL/6 female mice. Femurs and tibiae were aseptically removed and dissected free of adherent soft tissues. The bone ends were cut, and the marrow cavity was flushed out with medium αMEM from one end of the bone using a sterile 21-gauge needle. The bone marrow suspension was carefully agitated with a plastic Pasteur pipette to obtain a single-cell suspension. The cells were washed twice and resuspended (3.75×10^5 cells/ml) in α MEM containing 10% FBS, and this suspension was added to 24-well plates (500 μl/well). To each of these wells an additional 500 μl of medium containing M-CSF (30 ng/ml) and RANKL (30 ng/ml) without or with various concentrations of DPCPX and N6-CPA were added. Cultures were fed every 3 days by replacing 500 μl of culture medium with an equal quantity of fresh medium and reagents. After incubation for 7 days, wells were prepared for tartrate-resistant acid phosphatase (TRAP) staining. The number of TRAP-positive multinucleated cells (MNCs) containing three or more nuclei was scored. Osteoclast formation was evaluated by quantification of Tartrate-Resistant Acid Phosphatase (TRAP)-positive multinucleated cells (MNCs) using a modification of the method of Burstone. […] TRAP is preferentially expressed at high levels in osteoclasts and is considered, especially in the mouse, to be an osteoclast marker. After incubation, cells on wells were washed in PBS, fixed in 4% paraformaldehyde for 10 min, and stained for acid phosphatase in the presence of 0.3 M sodium tartrate (Sigma-Aldrich). The substrate used was napthol AS-BI phosphate (Sigma-Aldrich). Only those cells that were strongly TRAP-positive (dark red) and have more than 3 nuclei were counted by light microscopy.

Assay [4] relates to ovariectomized C57BL/6 mice. The assay can be described thus: Bone loss due to ovariectomy (microCT). The note with it: OVX C57BL/6 mice, DPCPX 50 mg/kg/d oral in water, 5 weeks. Type of assay: in vivo, mouse. The method, then:
FIG. 12. Effects of the A1R Antagonist DPCPX on Bone Loss Due to Ovariectomy. […] Data are expressed as percent change relative to sham-operated vehicle-treated control mice. 6 Week old C57bl/6 female mice received ovariectomy or a sham procedure in which the ovaries were exteriorized but not removed. Mice were sacrificed 5 weeks after the surgical procedure. Mice were treated with either water alone or DPCPX dissolved in water and adjusted, based on the weight of the animals, to a dose of 50 mg/kg/d. Femoral μCT was measured as described (Hildebrand […] new method for the model-independent assessment of thickness in three-dimensional images. J Microsc 1997; 185:67-75) by using a MS-8 (MS-8, GE Healthcare, London, Ontario, Canada) at 18 μm isotropic resolution-scans calibrated by air, water and a mineral standard material phantom/Parker algorithm for digital reconstruction.

In assay [5] the test system is RANKL-induced NF-κB signaling. The assay can be described thus: RANKL-induced NF-κB signaling in osteoclast precursors (Western blot of cytoplasmic and nuclear fractions). The note with it: M-CSF and RANKL. The class given is cell-based, mouse. The arrangement: dose or concentration left out as unconfirmed. On the technique in general: A western blot detects proteins with antibodies after separation by electrophoresis.

Assay [6] relates to murine splenocytes. The assay can be described thus: RANKL-induced osteoclast formation by splenocytes (TRAP-positive MNC count). The class given is cell-based, mouse. Conditions: for osteoclast formation: M-CSF and RANKL. Here is the method: FIG. 4. Effect of DPCPX on osteoclast formation by Splenocytes. […] After 7 days cells were fixed and stained for TRAP, and the number of TRAP-positive MNCs per well was scored. (Similar results were obtained in three independent experiments). Splenocytes were isolated from 5- to 8-wk-old C57BL/6 female mice aspreviously described with modification. In brief, spleens were putted on top of 100 μm cell strainer in 50 ml falcon, mashed with plunger and rinsed the released cells through the strainer with 8 ml PBS. The nonadherent cells were layered on top of the lymphocyte separation medium. The cells were spin 1500 rpm for 20 minutes. The macrophages/lymphocyte white band was located about 1 cm below the top of the LSM. The PBS was aspirated until 1 ml above the band then 1 ml was removing to 50 ml Falcon including the band. To this Falcon 19 ml PBS was added and spine 1500 rpm for 15 minutes. PBS was removed and 10 ml αMEM was added. The cells were resuspended (3×10^5 cells/ml) in αMEM containing 10% FBS, and this suspension was added to 24-well plates ([…]) as described above. […] TRAP is preferentially expressed at high levels in osteoclasts and is considered, especially in the mouse, to be an osteoclast marker. After incubation, cells on wells were washed in PBS, fixed in 4% paraformaldehyde for 10 min, and stained for acid phosphatase in the presence of 0.3 M sodium tartrate (Sigma-Aldrich). The substrate used was napthol AS-BI phosphate (Sigma-Aldrich). Only those cells that were strongly TRAP-positive (dark red) and have more than 3 nuclei were counted by light microscopy.

Assay [7] relates to PU.1 mRNA. The assay can be described thus: RT-PCR of PU.1 mRNA in osteoclast precursors. Type of assay: cell-based, mouse. Conditions: DPCPX 1 μM, M-CSF and RANKL, 7 days.
Excerpt: as §1

For assay [8], the system named is TRAF6. The assay can be described thus: TRAF6 level in cells under A1 receptor blockade (other studies, data not shown). Type of assay: cell-based. The note with it: adenosine A1 receptors blocked by DPCPX (data not shown).
The mark [9] stands for this setting: M-CSF and DPCPX without RANKL (data not shown).
Where [10] appears, read: increasing concentrations of DPCPX added day 0 with M-CSF and RANKL (30 ng/ml each), 7 days.
Setting [11] is: DPCPX 3 days (per FIG. 8 legend).

Take `CCCn1c(=O)c2[nH]c(C3CCCC3)nc2n(CCC)c1=O` [DPCPX, 8-cyclopentyl-1,3-dipropylxanthine]: the osteoclast formation entry in assay [1] (DPCPX added on day 0, total culture 7 days) is given as “inhibited”; in assay [1] (DPCPX addition delayed (day 3, day 6), total culture 7 days) it was “inhibition decreased”; in assay [3] (DPCPX 1 nM, 7 days) it was “significantly inhibit”; in assay [3] (DPCPX 1 μM, 7 days), “complete inhibition”; in assay [6] (DPCPX 1 nM, 7 days), “significantly inhibited”; in assay [6] (DPCPX 1 μM, 7 days), “almost complete inhibition”. Also, the “c-Fos mRNA expression” value in assay [2] is “does not affect”. The “TRAP-positive cells in the absence of RANKL” value in assay [3] (setting [9]) and in assay [6] (setting [9]) was “no TRAP-positive cells were seen” in each case. The “number of TRAP-positive cells” value in assay [3] (setting [10]) is “strikingly inhibited the number of TRAP-positive cells in a dose-dependent manner”. Also, the “bone mass / trabecular bone volume (bone volume/total volume) following ovariectomy” value in assay [4] is “did not lose bone mass; also recorded: prevents ovariectomy-induced bone loss”. In assay [5] (setting [11]), the “cytoplasmic p50 and p65” value is “accumulate in the cytoplasm”. Further, the “nuclear translocation of p50 and p65” value in assay [5] (setting [11]) is “totally prevents”. Further, the “RANKL-induced degradation of IκB” value in assay [5] (DPCPX treatment for 3 days (per FIG. 8 legend)) is reported as “inhibited”. In assay [6] (setting [10]), the “number of TRAP-positive multinucleated cells” value is reported as “strikingly diminished the number of TRAP-positive multinucleated cells in a dose-dependent manner”. In addition, in assay [7], the “PU.1 mRNA expression” value was “does not affect”. Moreover, in assay [8], the “TRAF6 in the cell” value is “is lost from the cell”.
